One substance from patent US20070015741A1, “Novel prodrugs of estradiol” (priority 2005, published 2007) can be followed below.

This series in a line: Stability at 40° C./75% RH, prodrug assayed by HPLC for degradation to parent compound estradiol. Format: physicochemical. The note with it: HPLC assay of prodrug. On the procedure: The following is an example of stability for the preferred compound described previously. Stability was conducted at 40° C./75% RH, with the prodrug being assayed at specific time-points for degradation to the parent compound, estradiol. The time-points for stability were T=0 months, T=2 weeks, T=1 month, and T=3 months. The following outlines the conditions utilized for analysis of the prodrug. Analysis was conducted using High-Performance Liquid Chromatography (HPLC). The retention time for estradiol lactate acetate was approximately 9.0 minutes using these conditions. Conditions for HPLC analysis: [table]

With estradiol lactate-acetate, where the note is “T=0 months”, the “Assay (%) T = 0” value is recorded as 94.45%. Besides, the “Assay (%) T = 1” value (T=1 month) is 92.77%. The “Assay (%) T = 2 W” value (T=2 weeks) was 93.47%. Also, the “Assay (%) T = 3” value (T=3 months) amounted to 94.3%.
